In paper PMC5453399, “Microfluidic Mobility Shift Assay for Real-Time Analysis of Peptide N-Palmitoylation” (Slas Discovery, 2017):

Target: T1, Hhat (Homo sapiens, UniProt Q5VTY9)
T1 construct: Hhat-FLAG-His8 (C-terminal tags kept), stably expressed in HEK293a cells; DDM-solubilized membrane fraction P100(sol) enriched by Ni-NTA
Test: microfluidic mobility shift assay, stopped
Assay type: biochemical

T1 sequence (Q5VTY9 whole entry): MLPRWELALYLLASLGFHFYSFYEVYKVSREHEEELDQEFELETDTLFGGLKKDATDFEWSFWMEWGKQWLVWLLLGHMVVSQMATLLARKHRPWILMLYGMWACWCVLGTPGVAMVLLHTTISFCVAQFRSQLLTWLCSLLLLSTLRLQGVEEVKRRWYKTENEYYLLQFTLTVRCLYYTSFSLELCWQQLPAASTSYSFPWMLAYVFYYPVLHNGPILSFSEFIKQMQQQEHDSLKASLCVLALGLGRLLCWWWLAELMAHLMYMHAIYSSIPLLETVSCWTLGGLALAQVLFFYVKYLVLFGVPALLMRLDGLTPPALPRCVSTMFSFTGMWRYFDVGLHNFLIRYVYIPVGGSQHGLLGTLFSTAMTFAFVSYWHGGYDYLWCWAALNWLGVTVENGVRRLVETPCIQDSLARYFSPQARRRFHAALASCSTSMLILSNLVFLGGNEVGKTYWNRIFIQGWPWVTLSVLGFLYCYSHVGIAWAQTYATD

## CCC(C)CNCC(=O)N1CCc2sccc2C1c1cccc(C)c1 (stereo not shown) [RUSKI-101]
  IC50: 8.32 ± 3.69 µM
